Results taken from patent publication US11046710B2, “Sulfonamide compounds” (DAIICHI SANKYO COMPANY, LIMITED, priority 2016, dated 2021).

molecular target: human TNAP (Homo sapiens (Human), UniProt P05186); experiment: Inhibitory test of TNAP activity (pNPP substrate, p-nitrophenol production); assay type: biochemical; conditions: human TNAP from transfected COS1 culture supernatant, 60 minutes at room temperature
Protocol: COS1 cells (DS Pharma Biomedical Co., Ltd.) were transfected with human TNAP (OriGene Technologies, Inc.) using Lipofectamine LTX & Plus reagent (Invitrogen Corp.). On the next day, the medium was replaced with a fresh medium, and the cells were cultured in an incubator for 3 days. After 3 days, the culture supernatant was collected and concentrated by centrifugation at 5000 G for 30 minutes using Amicon 14, 10^4 cut (Merck Millipore). The concentrated culture supernatant was dialyzed against 5 L of 50 mM Tris/200 mM NaCl/1 mM MgCl2/20 μM ZnCl2 twice and used as an enzyme source (enzyme solution). The substrate pNPP (ProteoChem Inc.) was adjusted to 3.1 mM with Milli-Q water, and a solution of each test compound dissolved in dimethyl sulfoxide (DMSO; Wako Pure Chemical Industries, Ltd.) by 6 serial dilutions at a 5-fold common ratio from 100 μM, or DMSO was added thereto at a final concentration of 1% by volume. The enzyme solution adjusted to 2 μg/mL with an assay buffer (200 mM Tris/2 mM MgCl2/0.04 mM ZnCl2/0.01% Tween 20) was added in the same amount of the substrate solution and incubated at room temperature for 60 minutes. Then, the absorbance (ABS: 405 nm) was measured using a microplate reader (model plus 384, Molecular Devices, LLC), and the concentration of produced p-nitrophenol was calculated.

Sequence of human TNAP (P05186 18-524): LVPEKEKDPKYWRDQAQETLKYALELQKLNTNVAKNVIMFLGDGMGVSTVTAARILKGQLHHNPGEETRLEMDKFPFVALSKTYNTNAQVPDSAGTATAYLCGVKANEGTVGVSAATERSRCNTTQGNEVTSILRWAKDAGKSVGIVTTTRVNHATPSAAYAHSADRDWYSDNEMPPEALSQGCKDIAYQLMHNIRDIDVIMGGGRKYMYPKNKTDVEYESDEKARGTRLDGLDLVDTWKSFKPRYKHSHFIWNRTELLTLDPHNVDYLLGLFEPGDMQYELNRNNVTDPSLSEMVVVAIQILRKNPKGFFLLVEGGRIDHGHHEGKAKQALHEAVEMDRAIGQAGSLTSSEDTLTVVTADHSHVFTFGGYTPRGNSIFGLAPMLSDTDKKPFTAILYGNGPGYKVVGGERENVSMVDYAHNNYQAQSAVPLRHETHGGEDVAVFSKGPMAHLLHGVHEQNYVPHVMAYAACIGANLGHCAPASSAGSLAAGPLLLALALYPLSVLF

SMILES | IC50 [nM]
O=C1c2cc(NS(=O)(=O)c3cc(F)ccc3OC(F)(F)F)cnc2OC[C@H]2C[C@H](O)CN12 [Example 34, 5-fluoro-N-[(8S,9aR)-8-hydroxy-5-oxo-8,9,9a,10-tetrahydro-5H,7H-pyrido[3,2-f]pyrrolo[2,1-c][1,4]oxazepin-3-yl]-2-(trifluoromethoxy)benzenesulfonamide] | 1.6
O=C1c2cc(NS(=O)(=O)c3cc(Cl)ccc3OC(F)(F)F)cnc2OC[C@H]2C[C@@H](O)CN12 [Example 37, 5-chloro-N-[(8R,9aR)-8-hydroxy-5-oxo-8,9,9a,10-tetrahydro-5H,7H-pyrido[3,2-f]pyrrolo[2,1-c][1,4]oxazepin-3-yl]-2-(trifluoromethoxy)benzenesulfonamide] | 1.4
O=C1c2cc(NS(=O)(=O)c3cc(F)ccc3OC(F)(F)F)cnc2OC[C@H]2C[C@@H](O)CN12 [Example 39, 5-fluoro-N-[(8R,9aR)-8-hydroxy-5-oxo-8,9,9a,10-tetrahydro-5H,7H-pyrido[3,2-f]pyrrolo[2,1-c][1,4]oxazepin-3-yl]-2-(trifluoromethoxy)benzenesulfonamide] | 2.4
COc1ccc(Cl)cc1S(=O)(=O)Nc1cnc2c(c1)C(=O)N1CC[C@@H](O)[C@@H]1CO2 [Example 40, 5-chloro-N-[(9R,9aS)-9-hydroxy-5-oxo-8,9,9a,10-tetrahydro-5H,7H-pyrido[3,2-f]pyrrolo[2,1-c][1,4]oxazepin-3-yl]-2-methoxybenzenesulfonamide] | 5.8
COc1ccc(Cl)cc1S(=O)(=O)Nc1cnc2c(c1)C(=O)N1CC[C@H](O)[C@@H]1CO2 [Example 41, 5-chloro-N-[(9S,9aS)-9-hydroxy-5-oxo-8,9,9a,10-tetrahydro-5H,7H-pyrido[3,2-f]pyrrolo[2,1-c][1,4]oxazepin-3-yl]-2-methoxybenzenesulfonamide] | 0.4
O=C1c2cc(NS(=O)(=O)c3cc(Cl)ccc3OC(F)(F)F)cnc2OC[C@H]2[C@@H](O)CCN12 [Example 42, 5-chloro-N-[(9S,9aS)-9-hydroxy-5-oxo-8,9,9a,10-tetrahydro-5H,7H-pyrido[3,2-f]pyrrolo[2,1-c][1,4]oxazepin-3-yl]-2-(trifluoromethoxy)benzenesulfonamide] | 0.4
COc1ccc(Cl)cc1S(=O)(=O)Nc1cnc2c(c1)C(=O)N1CC(F)(F)C[C@@H]1CO2 [Example 45, 5-chloro-N-[(9aR)-8,8-difluoro-5-oxo-8,9,9a,10-tetrahydro-5H,7H-pyrido[3,2-f]pyrrolo[2,1-c][1,4]oxazepin-3-yl]-2-methoxybenzenesulfonamide] | 2

Next, values leading:

IC50 [nM] | SMILES
0.9 | COc1ccc(Cl)cc1S(=O)(=O)Nc1cnc2c(c1)C(=O)N1C[C@H](O)C[C@@H]1CO2 [Example 35, 5-chloro-N-[(8R,9aR)-8-hydroxy-5-oxo-8,9,9a,10-tetrahydro-5H,7H-pyrido[3,2-f]pyrrolo[2,1-c][1,4]oxazepin-3-yl]-2-methoxybenzenesulfonamide]
1.5 | COc1ccc(F)cc1S(=O)(=O)Nc1cnc2c(c1)C(=O)N1C[C@H](O)C[C@@H]1CO2 [Example 36, 5-fluoro-N-[(8R,9aR)-8-hydroxy-5-oxo-8,9,9a,10-tetrahydro-5H,7H-pyrido[3,2-f]pyrrolo[2,1-c][1,4]oxazepin-3-yl]-2-methoxybenzenesulfonamide]
0.8 | COc1ccc(Cl)cc1S(=O)(=O)Nc1cnc2c(c1)C(=O)N1C[C@@H](F)C[C@@H]1CO2 [Example 44, 5-chloro-N-[(8S,9aR)-8-fluoro-5-oxo-8,9,9a,10-tetrahydro-5H,7H-pyrido[3,2-f]pyrrolo[2,1-c][1,4]oxazepin-3-yl]-2-methoxybenzenesulfonamide]
0.5 | COc1ccc(Cl)cc1S(=O)(=O)Nc1cnc2c(c1)C(=O)N1C[C@@H](OC)C[C@@H]1CO2 [Example 46, 5-chloro-2-methoxy-N-[(8S,9aR)-8-methoxy-5-oxo-8,9,9a,10-tetrahydro-5H,7H-pyrido[3,2-f]pyrrolo[2,1-c][1,4]oxazepin-3-yl]benzenesulfonamide]
